Experiments:
[1] = test system: CD14+ CMML cells; assay: NK cell degranulation against primary CMML cells; assay type: cell-based, human; settings: IL-2-stimulated NK cells; lintuzumab 1 μg/ml; HDC 100 μM added to lintuzumab
Experimental: Assays of NK cell degranulation and ADCC. NK cell degranulation and cytotoxicity against patient-derived, malignant monocytes were assessed in experiments using lintuzumab (Abbvie, Stockholm, Sweden), a humanized anti-CD33 antibody. NK cells from healthy donors were co-incubated with monocytes, labeled with CellTrace violet stain (Life Technologies), in the presence of anti-CD107a-PE-Cy7 antibody (BD Pharmingen) and anti-oxidative compounds for four hours at 37° C. and 5% CO2. Thereafter, the cells were stained with LIVE/DEAD® fixable dead cell stain (Life Technologies) and assessed for lysis of monocytes and NK cell degranulation by flow cytometry. For culture experiments, cytotoxicity assays and confocal microscopy, Iscoves' modified Dulbecco minimum essential medium (IDMEM) supplemented with 10% human AB+ serum was used.

[2] = test system: NK cells and CD8+ T cells co-cultured with CD14+ CMML cells; assay: CMML cell-induced lymphocyte cell death, overnight co-culture; assay type: cell-based, human; settings: DPI 3 μM; for CMML-induced lymphocyte apoptosis / cell death: NK cells and CD8+ T cells, HDC 100 μM, catalase 200U/ml, PJ34 0.5 μM
Experimental: (§1) Lymphocyte cell death. Isolated lymphocyte subsets were co-cultured overnight with primary leukemic monocytes from CMML patients with or without NOX2 inhibitors or other anti-oxidative compounds at 37° C. in 5% CO2. Lymphocyte cell death was assessed by flow cytometry after staining with a LIVE/DEAD® fixable dead cell stain (Life Technologies). In receptor expression assays, purified NK cells where co-cultured overnight with monocytes in the presence or absence of the PARP-1 inhibitor PJ34 ([…]). The following antibodies were used for receptor expression assessment: NKp46-PE (clone: 9E2) and DNAM-1-PE-Cy7 (clone: DX11) from Miltenyi Biotec. NKp80-APC (clone: 4A4.D10) and CD16-BV605 (clone: 3G8) from BD Pharmingen.
Subsets of CD8+ T cells were stained and sorted on a 3-laser […] II flow cytometer (BD Biosciences). The following antibodies were used to distinguish the T cell populations: CD3-Pacific Blue (clone: S4.1) from Life technologies. CD8-APC-H7 (clone: SK1), CD45RA-APC (clone: HI100), CD45RO-PE (clone: UCHL1) and CCR7-PE-Cy7 (clone: G043H7) all from BD Pharmingen. CD8+ T cell subsets were further defined as follows: naive T cells (TN) as CD45RA CCR7+, T central memory cells (TCM) as CD45ROCCR7+, T effector memory cells (TEM) as CD45ROCCR7^− and T effector cells (TEff) as CD45RACCR7^−.

[3] = target: H2R (Homo sapiens, UniProt P25021); settings: thioether group replaced by an ether; cited from earlier work
Chain of H2R (P25021 whole entry, species assumed): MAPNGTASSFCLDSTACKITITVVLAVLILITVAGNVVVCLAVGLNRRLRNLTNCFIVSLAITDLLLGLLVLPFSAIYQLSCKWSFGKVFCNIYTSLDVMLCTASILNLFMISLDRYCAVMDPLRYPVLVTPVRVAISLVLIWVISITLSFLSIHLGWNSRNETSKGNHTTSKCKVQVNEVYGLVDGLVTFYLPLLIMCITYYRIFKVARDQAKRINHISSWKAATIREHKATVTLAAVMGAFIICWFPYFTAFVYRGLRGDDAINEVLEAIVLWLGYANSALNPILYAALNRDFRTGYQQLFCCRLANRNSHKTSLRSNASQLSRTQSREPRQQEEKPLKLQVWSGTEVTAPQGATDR

[4] = test system: EL-4 thymoma cell line; assay: EL-4 thymoma tumor growth in mice; assay type: in vivo, mouse; settings: EL-4-bearing C57BL/6J mice; 1.5 mg histamine dihydrochloride i.p. three times per week; 240 μg each antibody i.p. days 3, 6 and 10
Experimental: The EL-4 thymoma cell line (provided by Dr. Ingo Schmitz, Otto-von-Guericke-University, Magdeburg, Germany) was cultured in DMEM medium (Sigma, Stockholm, Sweden) supplemented with 10% fetal calf serum, 100 U/ml penicillin, 100 μg/ml streptomycin and 2 mM L-glutamine, as described in […]. et al. The Journal of Immunology, volume 194, no. 10, pp. 5014-5021. C57BL/6J mice (6-8 weeks old, purchased from Charles River Laboratories, Sulzfeld, Germany) were inoculated subcutaneously with 1.75-2×10^5 EL-4 tumor cells and treated with saline (control) or 1.5 mg histamine dihydrochloride (purchased from Sigma-Aldrich, Stockholm, Sweden) diluted in saline, by intraperitoneal injections three times per week starting one day before inoculation of cells. Two-hundred forty μg of an antibody against the programmed cell death-1 receptor (anti-mouse PD1, clone RMP1-14, referred to as a-PD1) and 240 μg of an antibody against the programmed death-ligand 1 (anti-mouse PD-L1, clone 10F.9G2, referred to as α-PDL1) (both purchased from BioXcell, West Lebanon, N.H., USA, catalogue numbers BE0146 and BE0101, respectively) were administrated by intraperitoneal injections three, six and ten days after tumor inoculation. Tumors were measured manually every 2-3 days. Tumor size was calculated as length× width.

[5] = test system: CD14+ CMML cells; assay: Extracellular ROS production by isoluminol-enhanced chemiluminescence; assay type: cell-based, human; settings: FACS-sorted CD14+ CMML cells stimulated with fMLF; HDC 50 or 100 μM
Experimental: ROS production. The extracellular ROS production of primary CMML cells was measured by isoluminol-enhanced chemiluminescence as described. In brief, 2×10^5 cells were added to 96-well plates in the presence of isoluminol (10 μg/ml) and horseradish peroxidase (HRP; 4U/ml) and stimulated by the NOX2 inducer N-formyl-methionyl-leucyl-phenylalanine (fMLF; 0.1 μM). Light emission was recorded using a FLUOstar Omega platereader (BMG Labtech).

[6] = test system: NK cells; assay: NK cell receptor expression after exposure to PJ34; assay type: cell-based, human; settings: PJ34 in the absence of ROS-producing cells
Experimental: as §1

Question: Which “NK cell degranulation response” value [1] does the source give for “lintuzumab: a humanized anti-CD33 antibody” here?
Answer: significantly augmented

Question: With catalase as the compound, how does the “CMML-induced lymphocyte apoptosis / cell death” value [2] read?
Answer: prevented

Question: For `CNC(=C[N+](=O)[O-])NCCOCc1ccc(CN(C)C)o1` [AH202399AA], which “reduction of affinity at H2R relative to ranitidine” value [3] is on record?
Answer: > 50 fold

Question: Which tumor growth [4] does the source give for `Cl.Cl.NCCc1c[nH]cn1` [HDC, histamine dihydrochloride] here?
Answer: significantly reduced tumor growth rate

Question: What about the ROS production [5] of the same compound?
Answer: significantly suppressed

Question: And the “NK cell degranulation response” value [1]?
Answer: further enhanced

Question: And the “CMML-induced lymphocyte apoptosis / cell death” value [2]?
Answer: prevented

Question: With `CN(C)CC(=O)Nc1ccc2[nH]c(=O)c3ccccc3c2c1` [PJ34] as the compound, how does the “CMML-induced lymphocyte apoptosis / cell death” value [2] read?
Answer: rescued

Question: And the “NK cell receptor expression” value [6]?
Answer: No down-regulation

Question: Which “CMML-induced lymphocyte apoptosis / cell death” value [2] does the source give for `c1ccc2c(c1)[I+]c1ccccc1-2` [DPI, diphenylene iodonium chloride] here?
Answer: prevented

Question: What about the “CMML cell-induced apoptosis of sorted CD8+ T cell subsets (TN, TCM, TEM, Teff)” value ([2]; ratio 1:1, overnight) of the same compound?
Answer: efficiently rescued all T cell subsets

— patent publication US20210292417A1, “HISTAMINE DIHYDROCHLORIDE COMBINATIONS AND USES THEREOF” (Immune Pharmaceuticals LTD., priority 2016, published 2021)
